Data from patent publication US20230201323A1, “VACCINE FORMULATIONS” (EUUALY S.A., priority 2020, published 2023).
Where a SMILES comes first, the peptide text is derived from it.

Columns and labels:
C57BL/6 female mice = tested on: C57BL/6 female mice
Procedure: C57BL/6 female mice are treated with an injection of 100 μl containing 200 μg of peptide encompassing amino acid residues […], namely:
and 100 μl of complete Freund's adjuvant. In addition, […] of pertussis toxin is administered intraperitoneally on days 0 and 2 to permeate the blood-brain barrier.
One month after the date of disease induction, the spinal cord is examined for inflammatory infiltrates. Tissues are fixed in formaldehyde and stained with hematoxilin-eosin for cell counting. T cells are identified using an anti-CD3 antibody. Demyelination is detected by staining with Luxol Fast Blue (LFB).
To establish that cells of the present invention exert a suppressive effect on pathogenic T cells, two group of C57BL/6 female mice was treated by 4 weekly subcutaneous injections of 100 μg of peptide
corresponding to peptide of SEQ ID NO:5 but containing a redox motif (in bold). These injections were made with a formulation containing aluminum hydroxide as adjuvant.
A second group of mice immunized with peptide of SEQ ID NO:6 was then treated as in the positive control group, namely peptide of SEQ ID:5 with complete Freund's adjuvant and pertussis toxin.

wildtype C57BL/6 mice = assay: IV transfer of peptide-elicited CD4+ T cells into wildtype C57BL/6 mice, spinal cord examination; type: in vivo; settings: 10^6 peptide-elicited CD4+ T cells per mouse IV, spinal cord ten days afterwards
Procedure: Such cells are then administered by IV injection in wildtype C57BL/6 mice (10^6 cells per mouse). Ten days afterwards, mice are sacrificed and the spinal cord isolated.
In a control experiment, 10^6 cells are administered by IV injection in wildtype C57BL/6 mice.

[1] = tested on: Thy1.1 CD4+ T cells obtained by immunisation with peptide of SEQ ID NO:1; assay: Mixed culture of Thy1.1 and Thy1.2 CD4+ T cells on antigen-presenting cells loaded with peptide of SEQ ID NO:1; type: cell-based, C57BL/6 mice; settings: 1/1 mixture with Thy1.2 CD4+ T cells elicited by SEQ ID NO:2, 7 days of culture
Procedure: Next, to determine whether CD4+ T cells obtained by immunisation with peptide of SEQ ID NO:2 could suppress pathogenic CD4+ T cells obtained by immunisation with peptide of SEQ ID NO:1, mixed cultures were performed with antigen-presenting cells loaded with peptide of SEQ ID NO:1. For such in vitro experiments, the two CD4+ T cell populations were obtained from C57BL/6 mice expressing either the Thy1.1 or the Thy1.2 surface phenotypic marker, identified by specific antibodies.
Dendritic cells converted from peripheral blood monocytes were used as antigen-presenting cells. Thus, 50×10^6 cells were incubated with 10 μg of peptide of SEQ ID NO:1 for 16 h at room temperature, washed and then incubated with a 1/1 mixture of Thy1.1 CD4+ T cells obtained by immunisation with peptide of SEQ ID NO:1 and Thy1.2 CD4+ T cells obtained by immunisation with peptide of SEQ ID NO:2. The phenotype of each CD4+ T cell population was then evaluated after 7 days of culture.

[2] = tested on: AQP4-specific CD4+ T cells; assay: Phenotype of CD4+ T cells from AQP4 KO C57BL/6 mice immunized with AQP4 peptide; type: in vivo
Procedure: The C57BL/6 (H-2b) strain is the elective animal model as its natural repertoire of CD4+ T cells contains cells activable by immunisation with AQP4 epitopes whose sequences are entirely superposable to those activating human CD4+ T cells. Besides, the homology between human and mouse AQP4 is 93%. However, due to natural tolerance to AQP4, it remains difficult to generate T cells with a pathogenic potential. Therefore, C57BL/6 mice lacking expression of AQP4 (AQP4 KO) are used.
is used at 100 μg emulsified in complete Freund's adjuvant to immunize AQP4 KO C57BL/6 mice in the footpad, followed by 3 injections of 100 μg in incomplete Freund's adjuvant at 10-days intervals. Four weeks after the last injection, the mice are sacrificed and splenocytes are prepared. After separation of CD4+ T cells from the bulk splenocytes, lymphocytes specific for peptide of SEQ ID NO:1 are isolated by incubation with magnetic beads coated with class II (H2b) molecules loaded with peptide of SEQ ID NO:1.
AQP4-specific CD4+ T cells are then phenotyped and found to belong to the Th17 subtype.
A similar experiment is carried out in AQP4 KO C57BL/6 mice immunized with the same peptide, but containing a redox motif (in bold) in its flanking residues (SEQ ID NO:2), and with alum instead of CFA/IFA

[3] = tested on: cells obtained by stimulation with peptide of SEQ ID NO:7; assay: Coculture of CFSE-labelled SEQ ID NO:7 cells with SEQ ID NO:8 cells, proliferation by CFSE dilution; type: cell-based, Balb/c mice
Procedure: Cells obtained by stimulation with peptide of SEQ ID NO:7 were labelled with CFSE and cultured together with cells obtained with peptide of SEQ ID NO:8 at a 1 to 1 ratio on antigen-presenting cells loaded with peptide of SEQ ID NO:7.
After 7 days of coculture, the proliferation of cells was measured by CFSE dilution.

CD4+ T cells = assay: Phenotype and cytokine production of Balb/c CD4+ T cells expanded in vitro with Staph. aureus nuclease peptides; type: cell-based, Balb/c mice; settings: after 2 cycles of stimulation on peptide-loaded antigen-presenting cells
Procedure: Balb/c mice kept under open conditions (not pathogen-free) show specific antibodies and CD4+ T cells towards Staph. aureus nuclease. Splenocytes are obtained from such mice to prepare CD4+ T cells. Such cells are cultured and expanded in the presence of antigen-presenting cells loaded with either peptide of sequence
After 2 cycles of stimulation, the phenotype and cytokine production of cells are examined. […] Other markers of CD4+ T cells with an immune suppressive function include DLL4 (Rubey et al. Diabetes 2020 69(5):915-926, CTLA2 (Sugita et al. J Immunol 2009 183(8):5013-22), TGF-beta2 (Mir et al. Immunology 2015 146(4):547-56, arginase (Khoshnejad et al. Mol Ther Methods Clin Dev 2020 18:652-663 and meteorin (Baht et al. Nat Metab 2020 2(3):278-289)

NOD mice = assay: Insulitis by pancreas histology in immunized NOD mice; type: in vivo; settings: female NOD mice, 100 μg in aluminium hydroxide four times at a week interval from six weeks old, histology at week 15
From the text: Non-obese diabetes (NOD) mice are the most used animal model for diabetes due to the spontaneous development of insulitis, hyperglycaemia and diabetes in a context wherein both inflammation and auto-immunity play determining roles. The local lesion, insulitis, starts accumulating after a few weeks, so that therapeutic interventions should be considered as suppressive rather than preventive.
Six-weeks old female NOD mice are immunized with a peptide made of a class II-restricted T cell epitope of GAD65 (319-333: ILEVKQKGFVPFLVS, SEQ ID NO:3) or with the same peptide containing a redox motif (bold figures) in its flanking residues
Immunisation is carried out using 100 μg of peptide of SEQ ID NO:4 in aluminium hydroxide, four times at a week interval. Control mice receive peptide of SEQ ID NO:3 according to the same injection schedule.
Mice are then sacrificed at week 15, the pancreas is isolated and evaluated by histology to identify insulitis.

[4] = tested on: CD4+ obtained from the spleen of mice immunized with peptide of SEQ ID NO:3; assay: Co-culture of CFSE-labelled CD4+ cells (SEQ ID NO:3) with CD4+ T cells from mice immunized with SEQ ID NO:4; type: cell-based, NOD mice
[5] = AQP4 KO C57BL/6 mice immunized with peptide in alum

CC[C@H](C)[C@H](NC(=O)CNC(=O)[C@@H](NC(=O)[C@H](CS)NC(=O)[C@@H]1CCCN1C(=O)[C@H](Cc1ccc(O)cc1)NC(=O)[C@H](CS)NC(=O)[C@@H](N)Cc1c[nH]cn1)[C@@H](C)O)C(=O)N[C@@H](CC(C)C)C(=O)N[C@@H](CC(=O)O)C(=O)N[C@@H](CO)C(=O)N[C@H](C(=O)NCC(=O)N[C@@H](CCCNC(=N)N)C(=O)N[C@@H](Cc1ccccc1)C(=O)N[C@@H](Cc1ccccc1)C(=O)N[C@@H](CO)C(=O)NCC(=O)O)[C@@H](C)CC [SEQ ID NO:6, HCYPCTGILDSIGRFFSG] (H-HCYPCTGILDSIGRFFSG-OH)
signs of disease after immunisation alone (C57BL/6 female mice; 4 weekly subcutaneous injections of 100 μg with aluminum hydroxide, no disease induction): no signs of disease

HCPYCSIMVAFKGVWTQAFWKAV (AQP4redox; (9)..(20) core epitope) [SEQ ID NO:2, same AQP4 peptide containing a redox motif in its flanking residues]
spinal cord inflammatory lesions / infiltration (wildtype C57BL/6 mice): no inflammatory lesions or T lymphocytes | phenotype of Thy1.1 CD4+ T cells (SEQ ID NO:1-elicited) in mixed culture [1]: lost their phenotypic characteristics of Th17 cells | proliferation of Thy1.1 CD4+ T cells (SEQ ID NO:1-elicited) in mixed culture [1]: no proliferation | factors produced by CD4+ T cells obtained from the spleen [2, 5]: PGE2 (prostaglandin E2) and IL-10 | markers characterizing CD4+ T cells obtained from the spleen [2, 5]: TIGIT and CTLA2

HCYPCHNTHEQHLRKS (Sa Nucleaseredox) [SEQ ID NO:8, Staph. aureus nuclease peptide containing a redox motif]
proliferation of SEQ ID NO:7-obtained cells in presence of SEQ ID NO:8-obtained cells (CFSE dilution) ([3]; 1 to 1 ratio, antigen-presenting cells loaded with SEQ ID NO:7, 7 days of coculture): do not proliferate | phenotype of SEQ ID NO:8-obtained cells after coculture ([3]; 7 days of coculture on antigen-presenting cells loaded with SEQ ID NO:7): unchanged phenotype | cytokine production of cells obtained by stimulation (CD4+ T cells): IL-4, IL-10, IL-13 and amphiregulin (AREG) | surface expression on cells obtained by stimulation (CD4+ T cells): TIGIT and BLIMP-1

HCYPCILEVKQKGFVPF (GAD65redox) [SEQ ID NO:4]
islets with no sign of inflammation or cellular infiltrate (NOD mice): > 70% | capacity of recovered CFSE-labeled cells to proliferate upon presentation of cognate epitope (SEQ ID NO:3) ([4]; cells recovered from co-culture with SEQ ID NO:4-elicited CD4+ T cells): lost their capacity to proliferate | reduction in numbers of CFSE-labelled CD4+ cells (SEQ ID NO:3) by co-culture ([4]; co-culture with CD4+ T cells from spleen of mice immunized with SEQ ID NO:4): circa 5%

ILEVKQKGFVPFLVS (GAD65 epitope) [SEQ ID NO:3, reference compound]
islets with no sign of inflammation or cellular infiltrate (NOD mice): the reverse

NTHEQHLRKS (Sa Nuclease) [SEQ ID NO:7, Staph. aureus nuclease peptide, no redox motif, reference compound]
cytokine production of cells obtained by stimulation (CD4+ T cells): interferon gamma (IFN-γ) | phenotype of cells obtained by stimulation (CD4+ T cells): characteristics of Th1 cells

SIMVAFKGVWTQAFWKAV (AQP4 epitope; (4)..(15) core epitope) [SEQ ID NO:1, peptide encompassing amino acid residues 21-38 of AQP4, no redox motif, reference compound]
spinal cord inflammatory lesions / infiltration (wildtype C57BL/6 mice): Infiltration with inflammatory cells, including AQP4-specific CD4+ T cells is observed | subtype of AQP4-specific CD4+ T cells ([2]; AQP4 KO C57BL/6 mice, 100 μg in CFA then 3 x 100 μg in IFA, splenocytes four weeks after last injection): Th17 subtype

TGILDSIGRFFSG (MBP) [SEQ ID NO:5]
demyelination by Luxol Fast Blue (LFB) staining (C57BL/6 female mice; SEQ ID NO:5 = disease induction, SEQ ID NO:6 = 4 weekly sc 100 μg in aluminum hydroxide before induction): signs of demyelination | T lymphocyte / inflammatory infiltrates in the spinal cord (C57BL/6 female mice; hematoxilin-eosin and anti-CD3, SEQ ID NO:5 = disease induction, SEQ ID NO:6 = 4 weekly sc 100 μg in aluminum hydroxide before induction): significant infiltrates including T lymphocytes
